Laboratory results reported in US5260189A, “Synthetic HIV-like peptides their compositions and uses” (Immunodiagnostics, Inc., priority 1992, dated 1993).
“Also recorded” adds a separate entry of the source.

Experiments:
antibodies to SIV/HIV-2 = experiment: EIA of peptide-protein conjugates coated on polystyrene microtiter plates, macaque sera; assay type: binding, rhesus macaque (Macaca mulatta)
Text: For all of the immunoassays employing human serum, the serum samples were obtained from the King County Health Department, Seattle, Wash., U.S.A., and each serum had been characterized as positive or negative with respect to antibodies to HIV-1, as determined by testing with the commercially licensed Genetic Systems and or DuPont EIA tests. Serum from rhesus macaque monkeys (Macaca mulatta) was obtained from the University of Washington, Seattle, Wash., U.S.A., and had been characterized by a SIV whole virus lysate EIA as either containing or not containing antibodies to SIV which is nearly identical in sequence to HIV-2 in the region of the peptide epitopes studied.
(§1) The free peptides or peptide-protein conjugates of FIGS. 1-13 were initially screened for immunoreactivity by coating each well of polystyrene microtiter EIA plates (Costar, Cambridge, Mass., U.S.A.) with 0.2 ml amounts of concentrations of 5-50 micrograms/ml peptide in Tris buffer, 10 mM, pH 8.0, at 4° C. overnight. Peptides or peptide-protein conjugates showing immunoreactivity by EIA were then further diluted for coating to determine the minimal concentrations required that allowed maximal immunoreactivity with antibodies to HIV, and minimal nonspecific reactivity with normal sera. The EIA tests were performed as follows: The coating solution was removed from each well and the wells were blocked at 37° C. for 30 minutes with a solution of 50 mM phosphate, 100 mM NaCl, pH 7.4, 1% BSA, 0.5% gelatin. The wells were then aspirated dry with a microtiter plate washer and washed 3 times with a solution of 50 mM phosphate, 100 mM NaCl, 0.05% Tween 20, pH 7.4 (PBST). A 1:101 dilution (in PBST with 1% BSA, 1% NRS) of the primate serum to be tested was then added as 0.2 ml to each washed well and the plates were incubated at 37° C. for 30 minutes. The plates were then washed×3 with PBST, and 0.2 ml amounts of a 1:2000 dilution of goat anti-human (GAH) peroxidase enzyme conjugate (Organon Teknika, Cappel, Melvern, Pa., U.S.A.) that recognized human IgG, IgA, and IgM were added to each well, and the plates were incubated for 30 minutes at 37° C. The plates were then washed×3 with PBST and incubated with 0.2 ml/well substrate consisting of 0.1M citric acid pH 5.2, 0.1 mg/ml o-phenylene diamine, 0.01% H2 O2, at room temperature in the dark for 10 minutes. Reactions were stopped with 50 microliters of 4N H2 SO4, and the color development was quantitated in a Multiscan plate reader at A492. In each series of experiments positive and negative controls were included, and all tests were done in duplicate or quadruplicate. Most peptides and peptide conjugates were initially screened against a 1:101 dilution of pools of HIV positive or HIV negative sera, and the same serum pool was used to allow quantitative comparison of immunoreactivity of different free peptides or peptide-protein conjugates.
(§2) The peptides in FIGS. 1 and 5 were synthesized as described in Example 1 and conjugated to KLH or BSA as described in Example 2. These peptide-protein conjugates were coated to polystyrene microtiter plates all at a concentration 10 micrograms peptide/ml and evaluated for immunoreactivity as described in Example 3, using a 1:101 dilution of a pool of sera (HIV+/SIV+, respectively) containing antibodies to HIV-1 (FIG. 1) or to HIV-2 (FIG. 5), as well as pooled serum (HIV-/SIV-, respectively) containing no antibodies to HIV-1 or HIV-2. […] Since sera from patients infected with HIV-2 are relatively unavailable in the United States, the immunoreactivity of HIV-2 synthetic peptides was assessed using serum from macaques infected with SIV, obtained from the University of Washington Primate Center, Seattle, Wash., U.S.A. The AA sequence of SIV is nearly identical to HIV-2 in the region of the peptides synthesized (see Myers et al., Human Retroviruses and AIDS, 1988. A compilation of nucleic acid and amino acid sequences. Los Alamos National Laboratory, Los Alamos, N. Mex., 87545, USA).

antibodies to HIV-2 = experiment: Rapid EIA with latex reagents to detect antibodies to HIV-2; assay type: binding
Description: A 125 microliter volume of 10% latex was added to a 375 microliter volume of deionized water, and mixed with an equal volume (0.5 ml) of 1M carbodiimide, pH 4.5. The mixture was shaken gently a room temperature for 1 hour, and then washed 3 times by centrifugation at 9,000×g for 10 minutes, removal of supernate, and resuspension of the pellet in a 12-14 ml volume of deionized water, pH 4.5. The free peptides at 1 mg/ml concentration (500 micrograms/ml of each peptide 4S36 and 5S70), or the peptide-BSA conjugate of peptides 4S36 and 5S70 at 500 micrograms/ml were added to the final washed activated latex pellet (1 ml volume of peptide containing solution per 125 microliters original volume of latex). […] It was determined that this stock solution of latex coated with peptide-BSA conjugate could be diluted 1:10-1:30 with latex diluent buffer for use in the rapid EIA described below.
Serum specimens were diluted 1:8 for the rapid EIA in a serum diluent buffer consisting of 0.03M Tris, pH 8 containing 0.8% NaCl, 0.05% NaN3, 0.05% Triton x-100. […] The reaction was stopped after 3-4 minutes by adding a drop of 4N H2 SO4, and the test device could be retained as a permanent record of positive (blue-purple color) or negative (white membrane) until the results were recorded. […]

antibodies to HIV-1 [1] = experiment: EIA of peptide-protein conjugates coated on polystyrene microtiter plates, human sera; assay type: binding
Description: as §1, §2

antibodies to HIV-1 [2] = experiment: Rapid HIV-1 EIA with peptide reagents immobilized on latex in rapid test device; assay type: binding, human; settings: passive adsorption
Description: A test device for performing rapid tests in less than 15 minutes was prepared as illustrated in FIGS. 14 and 15. Referring to FIGS. 14 and 15, the device comprises a plastic slide 10 (approximately 1 inch wide by 3/16 inch thick by 31/4 inches long) having a plurality of funnel-like wells 12, each having a capacity of approximately 200 microliters, an upper inflow tract rim 14 diameter of approximately 9 mm and a lower outflow tract 16 diameter of approximately 2 mm. The undersurface of the outflow tract 16 is designed so as to provide a smooth even contact with a membrane filter 18 placed next to it in the apparatus. The membrane filter separates reactants passing through it by size, retaining those particles above a predetermined size, such as above 0.22 microns, or above 0.45 microns in size (depending upon the specific filter chosen), through other filters placed into the apparatus might separate by binding or affinity (i.e. nitrocellulose, glass). […]
The mixture was shaken gently a room temperature for 1 hour, and then washed 3 times by centrifugation at 9,000×g for 10 minutes, removal of supernate, and resuspension of the pellet in a 12-14 ml volume of deionized water, pH 4.5. […] It was determined that this stock solution of latex coated with peptide-BSA conjugate could be diluted 1:10-1:30 with latex diluent buffer for use in the rapid EIA described below. […]

Sequence	immunoreactivity with SIV/HIV-2 antibodies (FIG. 5) (antibodies to SIV/HIV-2; C-terminal BSA-SMCC conjugates, 10 micrograms peptide/ml coating, 1:101 dilution of pooled SIV+ / SIV- macaque sera)	discrimination of positive from negative macaque sera (FIG. 7) (antibodies to SIV/HIV-2; peptide-BSA conjugates)	discrimination of HIV-2+ from HIV-2- serum samples, rapid EIA (antibodies to HIV-2)	reactivity with sera not containing antibodies to HIV-1 (FIGS. 10C, 11) (antibodies to HIV-1 [1]; BSA-SMCC conjugate, 85-87 negative human sera)	number of positive samples giving A492 less than 1.0 (antibodies to HIV-1 [1]; BSA-SMCC conjugate, 98 positive human sera (FIGS. 11A, 11B))	positive/negative ratios (FIG. 9) (antibodies to HIV-1 [1]; BSA-peptide conjugate, polystyrene plastic type 1 (low reactivity with normal human sera))	performance of free peptide passively adsorbed to latex (antibodies to HIV-1 [2])
ARLNSWGCAFRQVCHGC [2S25]	Significant immunoreactivity; also recorded: best immunoreactivity; also recorded: maximally immunoreactive	most favorable performances	capable of discriminating	–	–	–	–
VWGCSGKLICTTAVPGC [4S36, unnatural variant of HIV-1 gp41 peptide 2S09]	–	–	–	acceptably low	none	≥ 20	produced an immunoreactive reagent
